# Laboratory results from patent publication US8354265B2, “Chemicals promoting the growth of N-acylhomoserine lactone-degrading bacteria” (Centre National de la Recherche Scientifique, priority 2007, dated 2013).
# What was measured:
# [1] = tested on: bacterial consortia from unplanted soil; assay: C6-HSL inactivation by bacterial consortia enriched from unplanted soil on the compound as sole carbon source; format: cell-based; settings: soil and rhizospheric samples; among 25 assayed molecules
# [2] = tested on: NAHL-degrading rhizobacteria of potato rhizosphere; assay: Preliminary experiment in planted hydroponic batches: level and diversity of NAHL-degrading rhizobacteria (Table 1); format: in vivo, Solanum tuberosum var. Allians
# Experimental: The non sterile batches (40×60×8 cm) contained 13 L of the nutritive solution Hydrobloom (Cellmax, UK) with Nitrogen at 0.80 g/L, Phosphore at 0.56 g/L and Potassium at 1.48 g/L as major components. The solution was diluted from a concentrated stock solution (×250) with non sterile water from the public water system. One hundred plants of Solanum tuberosum var. Allians, which were recovered from cultures performed under sterile conditions, were placed into holes (3 cm space to each other) of batch covers. Planted batches were placed in the greenhouse (Comité Nord Plants de Pomme de Terre, Bretteville-du-Grand-Caux) under natural light at 10-15° C. (night) and 25-30° C. (day). […] An untreated batch was used as a control. One gram of roots (fresh weight) was resuspended in 10 mL of sterile MgSO4 10 mM, diluted and spread on TSA and King B plates to isolate total cultivable bacteria and fluorescent Pseudomonas, respectively. Three samples were analyzed from each batch at each time D0, D14 and D28; from each sample, thirty isolates from TSA plates and thirty fluorescent isolates from King B plates were individually tested from production and inactivation of NAHL signal.
# (§1) Bacterial isolates grown in 96-microwell plates were individually tested from production of NAHL with the A. tumefaciens biosensor NT1 (pZNLR4) and the inactivation of the C6-HSL signal, as described previously (d'Angelo-Picard et al. 2004).
# At least 400 bp were submitted to the NCBI database.
# [3] = tested on: bacterial isolates from untreated and GCL-treated batches; assay: Assimilation of GCL as sole carbon source versus NAHL inactivation by isolates (FIG. 10); format: cell-based; settings: untreated and GCL-treated (0.1 and 0.4 mL/L) batches; D14 and D28
# Experimental: Each disk represents 90 isolates from untreated or GCL-treated (0.1 and 0.4 mL/L) batches 14 days (D14) and 28 days (D28) after the beginning of the treatment.
# as §1
# Results were cross-examined with respect to the ability of each strain to inactivate (or not) NAHL signal.
# [4] = tested on: acyl-HSL degrading strains of potato rhizosphere; assay: GCL treatment of potato plants in long-term hydroponic culture (FIG. 12); format: in vivo, Solanum tuberosum; parameters: dose or concentration left out as unconfirmed; settings: 0.4 at D0, D18 and D49; at D28, D49 and D56
# Experimental: The plants were cultivated in hydroponic batches from D0 to D17, then transferred into hydroponic system allowing the long term culture until tuberisation. At each time, three samples (D0 and D7) and four samples (D28, D49 and D56) were analyzed: the number of CFU/g of roots was estimated (B), as well as the percentage of acyl-HSL-producing (C) and acyl-HSL degrading strains. Different letters indicate a significative difference (Student's t-test; α=0.05) between the two conditions, untreated and GCL-treated.
# The plants were cultivated in hydroponic batches from D0 to D17, then transferred into hydroponic system allowing the long term culture until tuberisation.
# young plants = assay: Sensitivity of young plants to the chemicals; settings: high concentrations (1 mL/L); data not shown
compound,measurement,setting,value
"CCC1CCC(=O)O1 (centres unmarked) [GCL, gamma-caprolactone]",growth stimulation of NAHL-degrading bacteria after enrichment procedures,[1],stimulated the growth of NAHL-degrading bacteria
same,Log CFU/gram of root (fresh weight),[2]; D0 (before treatment),8.0 ± 7.5 Log CFU/gram of root (fresh we
same,NAHL degraders (%),[2]; D0 (before treatment),16.7 ± 0.1 %
same,NAHL producers (%),[2]; D0 (before treatment),6.7 ± 1.0%
same,rrs-identified NAHL-degraders: Delftia,"[2]; D0, of 8 isolates",3
same,rrs-identified NAHL-degraders: Pseudomonas,"[2]; D0, of 8 isolates",2
same,rrs-identified NAHL-degraders: Rhodococcus,"[2]; D0, of 8 isolates",3
same,Log CFU/gram of root (fresh weight),"[2]; D28, 0.1 mL/L",10.5 ± 9.8 Log CFU/gram of root (fresh we
same,NAHL degraders (%),"[2]; D28, 0.1 mL/L",33.3 ± 4.0 %
same,NAHL producers (%),"[2]; D28, 0.1 mL/L",11.1 ± 1.5%
same,identified genera of NAHL-degrading bacteria,"[2]; D28, 0.1 mL/L",3
same,rrs-identified NAHL-degraders: Bacillus,"[2]; D28, 0.1 mL/L, of 8 isolates",1
same,rrs-identified NAHL-degraders: Delftia,"[2]; D28, 0.1 mL/L, of 8 isolates",2
same,rrs-identified NAHL-degraders: Rhodococcus,"[2]; D28, 0.1 mL/L, of 8 isolates",5
same,occurrence of bacteria both assimilating GCL and inactivating NAHL,[3],only detected in the treated batches
same,effect on the percentage of acyl-HSL degraders,[4],clear effect
same,sensitivity of young plants,young plants,sensitive
